#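 Assay format: 96-well plates, 48-hour exposure. At the TGI there is no net growth.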
# Legend:
# Assay in all cases: NCI tumour cell line growth inhibition, 48 h
# 786-0 renal = system: 786-0 renal
# A498 renal = system: A498 renal
# A549 NSCLC = system: A549 NSCLC
# ACHN renal = system: ACHN renal
# BT-549 breast = system: BT-549 breast
# CAKI-1 renal = system: CAKI-1 renal
# CCRF-CEM leukemia = system: CCRF-CEM leukemia
# COLO 205 colon = system: COLO 205 colon
# DLD-1 colon = system: DLD-1 colon
# DMS 114 small cell lung = system: DMS 114 small cell lung
# DMS 273 small cell lung = system: DMS 273 small cell lung
# DU-145 prostate = system: DU-145 prostate
# EKVX NSCLC = system: EKVX NSCLC
# HCC-2998 colon = system: HCC-2998 colon
# HCT-116 colon = system: HCT-116 colon
# HCT-15 colon = system: HCT-15 colon
# HOP-18 NSCLC = system: HOP-18 NSCLC
# HOP-62 NSCLC = system: HOP-62 NSCLC
# HOP-92 NSCLC = system: HOP-92 NSCLC
# HS 578T breast = system: HS 578T breast
# HT29 colon = system: HT29 colon
# IGROV1 ovarian = system: IGROV1 ovarian
# K-562 leukemia = system: K-562 leukemia
# KM12 colon = system: KM12 colon
# KM20L2 colon = system: KM20L2 colon
# LOX IMVI melanoma = system: LOX IMVI melanoma
# LXFL 529 NSCLC = system: LXFL 529 NSCLC
# M14 melanoma = system: M14 melanoma
# M19-MEL melanoma = system: M19-MEL melanoma
# MALME-3M melanoma = system: MALME-3M melanoma
# MCF7 breast = system: MCF7 breast
# MDA-MB-231 breast = system: MDA-MB-231 breast
# MDA-MB-435 = system: MDA-MB-435
# MDA-N = system: MDA-N
# MOLT-4 leukemia = system: MOLT-4 leukemia
# NCI-H226 lung = system: NCI-H226 lung
# NCI-H23 lung = system: NCI-H23 lung
# NCI-H460 lung = system: NCI-H460 lung
# NCI-H522 lung = system: NCI-H522 lung
# NCI/ADR-RES ovarian = system: NCI/ADR-RES ovarian
# OVCAR-3 ovarian = system: OVCAR-3 ovarian
# OVCAR-4 ovarian = system: OVCAR-4 ovarian
# OVCAR-5 ovarian = system: OVCAR-5 ovarian
# OVCAR-8 ovarian = system: OVCAR-8 ovarian
# PC-3 prostate = system: PC-3 prostate
# RPMI-8226 leukemia = system: RPMI-8226 leukemia
# RXF 393 renal = system: RXF 393 renal
# RXF-631 renal = system: RXF-631 renal
# SF-268 CNS = system: SF-268 CNS
# SF-295 CNS = system: SF-295 CNS
# SF-539 CNS = system: SF-539 CNS
# SK-MEL-2 melanoma = system: SK-MEL-2 melanoma
# SK-MEL-28 melanoma = system: SK-MEL-28 melanoma
# SK-MEL-5 melanoma = system: SK-MEL-5 melanoma
# SK-OV-3 ovarian = system: SK-OV-3 ovarian
# SN12C renal = system: SN12C renal
# SNB-19 CNS = system: SNB-19 CNS
# SNB-75 CNS = system: SNB-75 CNS
# SNB-78 CNS = system: SNB-78 CNS
# SR leukemia = system: SR leukemia
# SW-620 colon = system: SW-620 colon
# T-47D breast = system: T-47D breast
# TK-10 renal = system: TK-10 renal
# U251 CNS = system: U251 CNS
# UACC-257 melanoma = system: UACC-257 melanoma
# UACC-62 melanoma = system: UACC-62 melanoma
# UO-31 renal = system: UO-31 renal
# XF 498 CNS = system: XF 498 CNS
# HL-60(TB) leukemia = system: HL-60(TB) leukemia
# P388 leukemia = system: P388 leukemia
# P388/ADR leukemia = system: P388/ADR leukemia
# SN12K1 renal = system: SN12K1 renal
structure (smiles),measurement,setting,value
O=C(CC1(O)C(=O)Nc2c(Cl)cc(Cl)cc21)c1cccc([N+](=O)[O-])c1 (configuration not stated),TGI,786-0 renal,> 59.9 µM
same,TGI,A498 renal,66.8 µM
same,TGI,A549 NSCLC,98.9 µM
same,TGI,ACHN renal,> 54.6 µM
same,TGI,BT-549 breast,> 100 µM
same,TGI,CAKI-1 renal,> 93.2 µM
same,TGI,CCRF-CEM leukemia,48.2 µM
same,TGI,COLO 205 colon,> 61.7 µM
same,TGI,DLD-1 colon,> 100 µM
same,TGI,DMS 114 small cell lung,43.3 µM
same,TGI,DMS 273 small cell lung,> 100 µM
same,TGI,DU-145 prostate,> 100 µM
same,TGI,EKVX NSCLC,> 100 µM
same,TGI,HCC-2998 colon,> 70.4 µM
same,TGI,HCT-116 colon,59 µM
same,TGI,HCT-15 colon,> 100 µM
same,TGI,HOP-18 NSCLC,98.6 µM
same,TGI,HOP-62 NSCLC,98.6 µM
same,TGI,HOP-92 NSCLC,80.9 µM
same,TGI,HS 578T breast,94.9 µM
same,TGI,HT29 colon,> 100 µM
same,TGI,IGROV1 ovarian,55.8 µM
same,TGI,K-562 leukemia,70.2 µM
same,TGI,KM12 colon,> 100 µM
same,TGI,KM20L2 colon,> 100 µM
same,TGI,LOX IMVI melanoma,35.5 µM
same,TGI,LXFL 529 NSCLC,30 µM
same,TGI,M14 melanoma,> 58 µM
same,TGI,M19-MEL melanoma,16.7 µM
same,TGI,MALME-3M melanoma,35.9 µM
same,TGI,MCF7 breast,33.3 µM
same,TGI,MDA-MB-231 breast,64.7 µM
same,TGI,MDA-MB-435,16.3 µM
same,TGI,MDA-N,34.6 µM
same,TGI,MOLT-4 leukemia,51.5 µM
same,TGI,NCI-H226 lung,> 77.5 µM
same,TGI,NCI-H23 lung,52.3 µM
same,TGI,NCI-H460 lung,> 100 µM
same,TGI,NCI-H522 lung,> 100 µM
same,TGI,NCI/ADR-RES ovarian,> 100 µM
same,TGI,OVCAR-3 ovarian,58.5 µM
same,TGI,OVCAR-4 ovarian,30 µM
same,TGI,OVCAR-5 ovarian,> 100 µM
same,TGI,OVCAR-8 ovarian,> 83.9 µM
same,TGI,PC-3 prostate,> 100 µM
same,TGI,RPMI-8226 leukemia,58.2 µM
same,TGI,RXF 393 renal,62.7 µM
same,TGI,RXF-631 renal,92.1 µM
same,TGI,SF-268 CNS,> 100 µM
same,TGI,SF-295 CNS,> 100 µM
same,TGI,SF-539 CNS,55.4 µM
same,TGI,SK-MEL-2 melanoma,> 86.3 µM
same,TGI,SK-MEL-28 melanoma,> 80.6 µM
same,TGI,SK-MEL-5 melanoma,30.9 µM
same,TGI,SK-OV-3 ovarian,> 100 µM
same,TGI,SN12C renal,58.1 µM
same,TGI,SNB-19 CNS,> 100 µM
same,TGI,SNB-75 CNS,68.2 µM
same,TGI,SNB-78 CNS,> 100 µM
same,TGI,SR leukemia,> 100 µM
same,TGI,SW-620 colon,> 64.4 µM
same,TGI,T-47D breast,> 100 µM
same,TGI,TK-10 renal,> 100 µM
same,TGI,U251 CNS,> 70.8 µM
same,TGI,UACC-257 melanoma,44.8 µM
same,TGI,UACC-62 melanoma,44.7 µM
same,TGI,UO-31 renal,60.1 µM
same,TGI,XF 498 CNS,37.3 µM
C=C(C)c1nc(Oc2ccccc2)nc(Oc2ccccc2)n1,TGI,786-0 renal,15 µM
same,TGI,A498 renal,31.1 µM
same,TGI,A549 NSCLC,38.8 µM
same,TGI,ACHN renal,23 µM
same,TGI,BT-549 breast,13.1 µM
same,TGI,CAKI-1 renal,4.44 µM
same,TGI,CCRF-CEM leukemia,9.25 µM
same,TGI,COLO 205 colon,17.2 µM
same,TGI,DLD-1 colon,6.62 µM
same,TGI,DMS 114 small cell lung,8.79 µM
same,TGI,DMS 273 small cell lung,19.7 µM
same,TGI,DU-145 prostate,30.4 µM
same,TGI,EKVX NSCLC,32.8 µM
same,TGI,HCC-2998 colon,8.18 µM
same,TGI,HCT-116 colon,10.5 µM
same,TGI,HCT-15 colon,7.43 µM
same,TGI,HL-60(TB) leukemia,4.51 µM
same,TGI,HOP-18 NSCLC,30.2 µM
same,TGI,HOP-62 NSCLC,25 µM
same,TGI,HOP-92 NSCLC,10.8 µM
same,TGI,HS 578T breast,44.1 µM
same,TGI,HT29 colon,12.9 µM
same,TGI,IGROV1 ovarian,22.4 µM
same,TGI,K-562 leukemia,5.49 µM
same,TGI,KM12 colon,10.9 µM
same,TGI,KM20L2 colon,26.7 µM
same,TGI,LOX IMVI melanoma,4.51 µM
same,TGI,LXFL 529 NSCLC,3.88 µM
same,TGI,M14 melanoma,11.3 µM
same,TGI,M19-MEL melanoma,7.93 µM
same,TGI,MALME-3M melanoma,27.6 µM
same,TGI,MCF7 breast,12.6 µM
same,TGI,MDA-MB-231 breast,28.9 µM
same,TGI,MDA-MB-435,22.3 µM
same,TGI,MDA-N,14.8 µM
same,TGI,MOLT-4 leukemia,1.69 µM
same,TGI,NCI-H226 lung,36.7 µM
same,TGI,NCI-H23 lung,21.5 µM
same,TGI,NCI-H460 lung,22.8 µM
same,TGI,NCI-H522 lung,2.73 µM
same,TGI,NCI/ADR-RES ovarian,29.7 µM
same,TGI,OVCAR-3 ovarian,15.2 µM
same,TGI,OVCAR-4 ovarian,31.7 µM
same,TGI,OVCAR-5 ovarian,30.2 µM
same,TGI,OVCAR-8 ovarian,24.4 µM
same,TGI,P388 leukemia,3.63 µM
same,TGI,P388/ADR leukemia,2.7 µM
same,TGI,PC-3 prostate,27.8 µM
same,TGI,RPMI-8226 leukemia,12 µM
same,TGI,RXF 393 renal,8.11 µM
same,TGI,RXF-631 renal,13.5 µM
same,TGI,SF-268 CNS,16.2 µM
same,TGI,SF-295 CNS,29.8 µM
same,TGI,SF-539 CNS,14.5 µM
same,TGI,SK-MEL-2 melanoma,9.51 µM
same,TGI,SK-MEL-28 melanoma,15.3 µM
same,TGI,SK-MEL-5 melanoma,27.4 µM
same,TGI,SK-OV-3 ovarian,30.3 µM
same,TGI,SN12C renal,16.4 µM
same,TGI,SN12K1 renal,8.88 µM
same,TGI,SNB-19 CNS,18.5 µM
same,TGI,SNB-75 CNS,24.5 µM
same,TGI,SNB-78 CNS,26.8 µM
same,TGI,SR leukemia,> 25.1 µM
same,TGI,SW-620 colon,15.7 µM
same,TGI,T-47D breast,21.6 µM
same,TGI,TK-10 renal,14 µM
same,TGI,U251 CNS,23.2 µM
same,TGI,UACC-257 melanoma,23 µM
same,TGI,UACC-62 melanoma,18.1 µM
same,TGI,UO-31 renal,32.1 µM
same,TGI,XF 498 CNS,13 µM
O=S1(=O)C(=C(c2ccccc2)c2ccccc2)S(=O)(=O)c2ccccc21,TGI,A498 renal,> 100 µM
same,TGI,A549 NSCLC,> 100 µM
same,TGI,CAKI-1 renal,> 100 µM
same,TGI,CCRF-CEM leukemia,> 100 µM
same,TGI,COLO 205 colon,> 100 µM
same,TGI,DLD-1 colon,> 100 µM
same,TGI,DMS 114 small cell lung,> 100 µM
same,TGI,DMS 273 small cell lung,> 100 µM
same,TGI,EKVX NSCLC,> 100 µM
same,TGI,HCC-2998 colon,> 100 µM
same,TGI,HCT-116 colon,> 100 µM
same,TGI,HCT-15 colon,> 100 µM
same,TGI,HL-60(TB) leukemia,> 100 µM
same,TGI,HOP-18 NSCLC,> 100 µM
same,TGI,HOP-62 NSCLC,46.8 µM
same,TGI,HOP-92 NSCLC,50.8 µM
same,TGI,HT29 colon,> 100 µM
same,TGI,IGROV1 ovarian,> 100 µM
same,TGI,K-562 leukemia,> 100 µM
same,TGI,KM12 colon,> 100 µM
same,TGI,KM20L2 colon,> 100 µM
same,TGI,LOX IMVI melanoma,> 100 µM
same,TGI,M19-MEL melanoma,> 100 µM
same,TGI,MALME-3M melanoma,> 100 µM
same,TGI,MCF7 breast,> 100 µM
same,TGI,MOLT-4 leukemia,> 100 µM
same,TGI,NCI-H226 lung,> 100 µM
same,TGI,NCI-H23 lung,> 100 µM
same,TGI,NCI-H460 lung,> 100 µM
same,TGI,NCI-H522 lung,> 100 µM
same,TGI,NCI/ADR-RES ovarian,> 100 µM
same,TGI,OVCAR-3 ovarian,> 100 µM
same,TGI,OVCAR-4 ovarian,> 100 µM
same,TGI,OVCAR-5 ovarian,> 100 µM
same,TGI,OVCAR-8 ovarian,> 100 µM
same,TGI,P388 leukemia,> 31.6 µM
same,TGI,P388/ADR leukemia,> 100 µM
same,TGI,RPMI-8226 leukemia,> 100 µM
same,TGI,RXF 393 renal,> 100 µM
same,TGI,SF-268 CNS,> 100 µM
same,TGI,SF-295 CNS,> 66.4 µM
same,TGI,SF-539 CNS,73.3 µM
same,TGI,SK-MEL-2 melanoma,> 100 µM
same,TGI,SK-MEL-28 melanoma,> 100 µM
same,TGI,SK-MEL-5 melanoma,> 100 µM
same,TGI,SK-OV-3 ovarian,> 100 µM
same,TGI,SN12C renal,> 100 µM
same,TGI,SN12K1 renal,65.1 µM
same,TGI,SNB-19 CNS,> 100 µM
same,TGI,SNB-75 CNS,44.4 µM
same,TGI,SNB-78 CNS,99.7 µM
same,TGI,SW-620 colon,> 100 µM
same,TGI,U251 CNS,> 100 µM
same,TGI,UACC-257 melanoma,> 100 µM
same,TGI,UACC-62 melanoma,> 100 µM
same,TGI,UO-31 renal,> 100 µM
same,TGI,XF 498 CNS,62.4 µM

# — PubChem BioAssay (NCI)
